In patent US5824696A, “Medicaments” (SmithKline Beecham Corporation, priority 1993, dated 1998):
Positions count from the first letter of the chain named. Read-outs that look alike come from different tables or passages of the source. Values belong to the compound of their own block, whether it stands above or below them.

What was measured:
[1] = molecular target: T1, angiotensin receptors in human synovium (Homo sapiens, UniProt P30556); assay: Inhibition of [125I](Sar1, Ile8)AII binding to human synovium, quantitative receptor autoradiography; parameters: Binding of [125I](Sar1, Ile8) angiotensin II in the presence of antagonist: unit not given here; conditions: for Binding of [125I](Sar1, Ile8) angiotensin II in the presence of DTT: osteoarthritis; for nHill values / Ki: osteoarthritic synovium; for Ki: 0.25 nM [125I](Sar1, Ile8)AII; for Binding of [125I](Sar1, Ile8) angiotensin II in the presence of antagonist: 10 μM antagonist
T1 construct: Human knee synovium was collected at surgery from patients with osteoarthritis or rheumatoid arthritis; from tissue; host or cells: human knee synovium cryostat sections (osteoarthritis, rheumatoid arthritis, chondromalacia patellae)
T1 sequence (P30556 1-359): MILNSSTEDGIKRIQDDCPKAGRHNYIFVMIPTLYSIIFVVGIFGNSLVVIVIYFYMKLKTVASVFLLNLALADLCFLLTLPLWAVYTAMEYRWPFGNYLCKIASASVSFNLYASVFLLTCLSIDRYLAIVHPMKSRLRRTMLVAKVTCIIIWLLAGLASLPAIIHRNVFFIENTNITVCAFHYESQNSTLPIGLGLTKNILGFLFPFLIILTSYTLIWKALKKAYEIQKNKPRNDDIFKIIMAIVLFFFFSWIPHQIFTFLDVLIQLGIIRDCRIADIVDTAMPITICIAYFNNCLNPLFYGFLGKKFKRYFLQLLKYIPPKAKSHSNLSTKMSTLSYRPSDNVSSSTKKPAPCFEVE
Description: Human knee synovium was collected at surgery from patients with osteoarthritis or rheumatoid arthritis undergoing total knee replacement and patients with chondromalacia patellae undergoing carbon fibre resurfacing of articular cartilage. Tissue samples were immediately embedded in Tissue-Tek (Miles Inc., Elkhart, Ind., USA) and frozen to cork mounts in melting isopentane without prior fixation. Specimens were stored at -40° C. until use. […] thick sections were cut in a cryostat and thaw mounted onto Vectabond™ (Vector Laboratories, Peterborough, U.K.) treated slides, air dried and used immediately, or stored at -20° C. with silica gel for up to 5 days until use.
[…] Excess buffer was removed and sections were incubated for 90 minutes with ligand in buffer B (buffer A plus 1% bovine serum albumin). […] Except where stated, incubations were performed at 22° C.
Films were developed in Kodak D9 for 3 minutes at 15° C. […] Synovial structures were identified, where necessary, by comparison of films with tissue sections counterstained with haematoxylin and eosin. Tissue structures (blood vessels, lining cells and regions of subintimal stroma displaying specific binding) were each delineated interactively. Binding was quantified on the 20 blood vessels in each section with the most dense specific binding.
Specific binding was defined as total minus non-specific binding. Characterisation of specific binding was performed on samples of synovium from patients with osteoarthritis.
Kinetic and equilibrium constants were derived from specific binding values by iterative non-linear regression assuming single site models using GraphPAD Inplot4 (San Diego). […] Values for binding inhibition constants (Ki) and HIll coefficients (nHill) were derived by fitting to sigmoid curves.

[2] = molecular target: T2, contractile response to angiotensin II in the isolated rabbit aorta (Oryctolagus cuniculus, UniProt P34976); assay: Antagonism of angiotensin II induced vasoconstriction in isolated rabbit aorta; conditions: rabbit thoracic aorta rings, 30-minute incubation, dose ratio method; read-out: Antagonist dissociation constant (KB)
T2 construct: Ring segments are cut from the rabbit thoracic aorta; from tissue; host or cells: rabbit thoracic aorta ring segments
T2 sequence (P34976 1-359): T1 sequence (P30556 1-359) with I2M, V49A, I254V, I270V, R272H, R311K, T349S, A353V
Description: Angiotensin II antagonist activity is assessed by in vitro methods In vitro antagonist activity is determined by the ability of the compounds to compete with ^125 I-angiotensin II for binding to vascular angiotensin II receptors and by their ability to antagonize the contractile response to angiotensin II in the isolated rabbit aorta.
The ability of the compounds to antagonize angiotensin II induced vasoconstriction is examined in the rabbit aorta. Ring segments are cut from the rabbit thoracic aorta and suspended in organ baths containing physiological salt solution. The ring segments are mounted over metal supports and attached to force displacement transducers which are connected to a recorder. Cumulative concentration response curves to angiotensin II are performed in the absence of antagonist or following a 30-minute incubation with antagonist. Antagonist dissociation constants (KB) are calculated by the dose ratio method using the mean effective concentrations. The KB for (E)-3-[2-n-butyl-1-{4-carboxynaphth-1-yl)methyl}-1H-imidazol-5-yl]-2-(2-thienyl)methyl-2-propenoic acid is about 0.15 nM.

[3] = system: angiotensin receptors in human synovium; assay: Guanine nucleotide sensitivity of [125I]AII binding to human synovium; conditions: 1 μM GTPγS

SMILES: CCCCc1ncc(/C=C(\Cc2cccs2)C(=O)O)n1Cc1ccc(C(=O)O)c2ccccc12 [(E)-3-[2-n-butyl-1-{4-carboxynaphth-1-yl)methyl}-1H-imidazol-5-yl]-2-(2-thienyl)methyl-2-propenoic acid]
- Kb [2]: ~0.15 nM

SMILES: Nc1nc2c(ncn2[C@@H]2O[C@H](COP(=O)(O)OP(=O)(O)OP(O)(O)=S)[C@@H](O)[C@H]2O)c(=O)[nH]1 [GTPγS, guanosine 5'-O-(3-thiotriphosphate)]
- Inhibition of binding of agonist [125I]AII to each structure [3]: levels not significantly different from nonspecific binding
- Inhibition of [125I](Sar1, Ile8)AII binding ([1]; 1 μM GTPγS): did not inhibit

SMILES: Cc1cc(Cn2cnc3c2C[C@@H](C(=O)O)N(C(=O)C(c2ccccc2)c2ccccc2)C3)ccc1N(C)C [PD123319]
- Inhibition of specific [125I](Sar1, Ile8)AII binding to each structure ([1]; 10 μM, synovium from patients with osteoarthritis and rheumatoid arthritis): not significantly inhibited
- Ki ([1]; Ki values, blood vessels): > 10000 nM
- Ki ([1]; Ki values, lining cells): > 10000 nM
- Ki ([1]; Ki values, stroma): > 10000 nM
- Binding of [125I](Sar1, Ile8) angiotensin II in the presence of antagonist ([1]; blood vessels, OA, total 7.9, nonspecific 2.4): 7.1
- Binding of [125I](Sar1, Ile8) angiotensin II in the presence of antagonist ([1]; blood vessels, RA, total 14, nonspecific 2.6): 12
- Binding of [125I](Sar1, Ile8) angiotensin II in the presence of antagonist ([1]; lining cells, OA, total 3.6, nonspecific 1.6): 3.8
- Binding of [125I](Sar1, Ile8) angiotensin II in the presence of antagonist ([1]; lining cells, RA, total 5.7, nonspecific 1.7): 5.5
- Binding of [125I](Sar1, Ile8) angiotensin II in the presence of antagonist ([1]; stroma, OA, total 2.4, nonspecific 1.5): 2.2
- Binding of [125I](Sar1, Ile8) angiotensin II in the presence of antagonist ([1]; stroma, RA, total 3.0, nonspecific 1.6): 2.9

The next lines start with the values.

- Inhibition of specific [125I](Sar1, Ile8)AII binding to each structure ([1]; 10 mM DTT): completely inhibited
- Binding of [125I](Sar1, Ile8) angiotensin II in the presence of DTT ([1]; blood vessels, 10 mM DTT, total 10.2, nonspecific 3.2): 3.2 (2.9 to 3.5) amol mm^-2
- Binding of [125I](Sar1, Ile8) angiotensin II in the presence of DTT ([1]; lining cells, 10 mM DTT, total 5.1, nonspecific 2.1): 2.0 (1.8 to 2.3) amol mm^-2
- Binding of [125I](Sar1, Ile8) angiotensin II in the presence of DTT ([1]; stroma, 10 mM DTT, total 2.6, nonspecific 1.7): 1.6 (1.5 to 1.7) amol mm^-2
SMILES: O[C@H](CS)[C@H](O)CS (racemic) [DTT, dithiothreitol]

- nHill values ([1]; blood vessels): 1.2
- Ki ([1]; blood vessels, read-out: Ki values): 49 nM
- Inhibition of binding of [125I](Sar1, Ile8)AII to microvessels, lining cells and stroma ([1]; inflamed human synovium): potently and completely inhibited
- nHill values ([1]; lining cells): 0.8
- Ki ([1]; lining cells, read-out: Ki values): 60.3 nM
- nHill values ([1]; stroma): 0.8
- Ki ([1]; stroma, read-out: Ki values): 81.3 nM
SMILES: CCCCc1ncc(/C=C(\Cc2cccs2)C(=O)O)n1Cc1ccc(C(=O)O)cc1 [(E)-3-[2-n-butyl-1-{4-carboxyphenyl)methyl}-1H-imidazol-5-yl]-2-(2-thienyl)methyl-2-propenoic acid]
